Holding throughout (assay type): cell-based
The test system of assay [1] is Mannheimia haemolytica MH 6357 (M7/2, reference strain, cattle infection strain). The experiment in a line: MIC, broth-microdilution (CLSI VET01-A4), strain MH 6357. The settings on record: Mannheimia haemolytica strain MH 6357, broth-microdilution; unit assumed. An outline of the steps: (§1)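 Serial twofold dilutions; unaided-eye turbidity scoring; lowest clear well = MIC.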
On the technique in general: Dilution methods test growth across graded concentrations, often in twofold steps.

The subject of assay [2] is Mannheimia haemolytica MH 6374 (ATCC 33396, reference strain). The experiment in a line: MIC, broth-microdilution (CLSI VET01-A4), strain MH 6374. The settings on record: Mannheimia haemolytica strain MH 6374, broth-microdilution; unit assumed. The procedure, abridged:
as §1

The test system of assay [3] is Mannheimia haemolytica MH 10720 (154, BRD field isolate). The experiment in a line: MIC, broth-microdilution (CLSI VET01-A4), strain MH 10720. The following applies: Mannheimia haemolytica strain MH 10720, broth-microdilution; unit assumed. The procedure, abridged:
as §1

The test system of assay [4] is Mannheimia haemolytica MH 12587 (1071, BRD field isolate, macrolide-resistance: erm+, E+). The experiment in a line: MIC, broth-microdilution (CLSI VET01-A4), strain MH 12587. The settings on record: Mannheimia haemolytica strain MH 12587, broth-microdilution; unit assumed. The procedure, abridged: as §1
The subject of assay [5] is Mannheimia haemolytica MH 13065 (XB0446-6003.9, BRD field isolate). The experiment in a line: MIC, broth-microdilution (CLSI VET01-A4), strain MH 13065. The settings on record: Mannheimia haemolytica strain MH 13065, broth-microdilution; unit assumed. An outline of the steps: as §1
Assay [6] deals with Mannheimia haemolytica MH 13093 (XB0472-6014.1, BRD field isolate). The experiment in a line: MIC, broth-microdilution (CLSI VET01-A4), strain MH 13093. The following applies: Mannheimia haemolytica strain MH 13093, broth-microdilution; unit assumed. The procedure, abridged: as §1
For assay [7], the system named is Pasteurella multocida PM 6267 (P 2225 (L386), reference strain, mouse infection strain). The experiment in a line: MIC, broth-microdilution (CLSI VET01-A4), strain PM 6267. The following applies: Pasteurella multocida strain PM 6267, broth-microdilution; unit assumed. An outline of the steps: as §1
Assay [8] concerns Pasteurella multocida PM 6391 (ATCC 43137, reference strain). In words: MIC, broth-microdilution (CLSI VET01-A4), strain PM 6391. The following applies: Pasteurella multocida strain PM 6391, broth-microdilution; unit assumed. An outline of the steps: as §1
In assay [9] the test system is Pasteurella multocida PM 10775 (080130003051, BRD field isolate). The experiment in a line: MIC, broth-microdilution (CLSI VET01-A4), strain PM 10775. The settings on record: Pasteurella multocida strain PM 10775, broth-microdilution; unit assumed. An outline of the steps: as §1
Assay [10] deals with Pasteurella multocida PM 12080 (IV102277-0093, BRD field isolate). The experiment in a line: MIC, broth-microdilution (CLSI VET01-A4), strain PM 12080. The following applies: Pasteurella multocida strain PM 12080, broth-microdilution; unit assumed. An outline of the steps: as §1

Values after ≈ are worked out from the molar mass of the structure shown.

In assay [1], `C=CCNCc1ccc(C#Cc2ccc(C(=O)N[C@H](C(=O)NO)C(C)=NOC)cc2)cc1` [Compound 379] showed an MIC MH 6357 of 0.8 µg/mL (≈ 1.84 µM). Moreover, the MIC MH 6374 in assay [2] stood at 1.6 µg/mL (≈ 3.68 µM). Moreover, the MIC MH 10720 in assay [3] worked out at 0.8 µg/mL (≈ 1.84 µM). Further, the MIC MH 12587 in [4] was 0.4 µg/mL (≈ 0.921 µM). For the same molecule, the MIC MH 13065 in assay [5] was 1.6 µg/mL (≈ 3.68 µM). In [6], this molecule yielded an MIC MH 13093 of 1.6 µg/mL (≈ 3.68 µM). This molecule showed an MIC PM 6267 in assay [7] of 3.1 µg/mL (≈ 7.13 µM). In addition, in [8], the MIC PM 6391 is ≤ 0.1 µg/mL. Also, the MIC PM 10775 in [9] is 0.4 µg/mL (≈ 0.921 µM). Besides, the MIC PM 12080 in assay [10] is 0.4 µg/mL (≈ 0.921 µM).
`COCCNCc1ccc(C#Cc2ccc(C(=O)N[C@H](C(=O)NO)C(C)=NOC)cc2)cc1` [Compound 380] had an MIC MH 6357 in assay [1] of 3.1 µg/mL (≈ 6.85 µM). In assay [2], this molecule had an MIC MH 6374 of 6.3 µg/mL (≈ 13.9 µM). Also, the MIC MH 10720 in assay [3] came to 3.1 µg/mL (≈ 6.85 µM). This molecule showed an MIC MH 12587 in assay [4] of 0.8 µg/mL (≈ 1.77 µM). This molecule showed an MIC MH 13065 in assay [5] of 3.1 µg/mL (≈ 6.85 µM). The molecule further yielded an MIC MH 13093 in assay [6] of 6.3 µg/mL (≈ 13.9 µM). The molecule also displayed an MIC PM 6267 in [7] of 6.3 µg/mL (≈ 13.9 µM). Besides, the MIC PM 6391 in assay [8] was 0.2 µg/mL (≈ 0.442 µM). The MIC PM 10775 in assay [9] was 1.6 µg/mL (≈ 3.54 µM). For the same molecule, in assay [10], the MIC PM 12080 was determined as 0.8 µg/mL (≈ 1.77 µM).
In assay [1], `CON=C(C)[C@H](NC(=O)c1ccc(C#Cc2ccc(CN3CCOCC3)cc2)cc1)C(=O)NO` [Compound 381] returned an MIC MH 6357 of 1.6 µg/mL (≈ 3.44 µM). The molecule also had an MIC MH 6374 in assay [2] of 3.1 µg/mL (≈ 6.67 µM). Besides, the MIC MH 10720 in [3] was 0.4 µg/mL (≈ 0.861 µM). For the same molecule, in [4], the MIC MH 12587 is 1.6 µg/mL (≈ 3.44 µM). Moreover, the MIC MH 13065 in assay [5] was 1.6 µg/mL (≈ 3.44 µM). In assay [6], this molecule gave an MIC MH 13093 of 1.6 µg/mL (≈ 3.44 µM). This molecule yielded an MIC PM 6267 in assay [7] of 1.6 µg/mL (≈ 3.44 µM). Moreover, in assay [8], the MIC PM 6391 is ≤ 0.1 µg/mL. In addition, in assay [9], the MIC PM 10775 was determined as 0.2 µg/mL (≈ 0.431 µM). Moreover, the MIC PM 12080 in assay [10] stood at 0.2 µg/mL (≈ 0.431 µM).
`CON=C(C)[C@H](NC(=O)c1ccc(C#Cc2ccc(CNCc3ccccc3)cc2)cc1)C(=O)NO` [Compound 382] gave an MIC MH 6357 in [1] of 0.8 µg/mL (≈ 1.65 µM). In [2], this molecule returned an MIC MH 6374 of 1.6 µg/mL (≈ 3.3 µM). Besides, in assay [3], the MIC MH 10720 amounted to 0.8 µg/mL (≈ 1.65 µM). For the same molecule, the MIC MH 12587 in [4] turned out to be 0.2 µg/mL (≈ 0.413 µM). This molecule also showed an MIC MH 13065 in [5] of 0.8 µg/mL (≈ 1.65 µM). For the same molecule, the MIC MH 13093 in [6] turned out to be 0.8 µg/mL (≈ 1.65 µM). This molecule displayed an MIC PM 6267 in assay [7] of 0.8 µg/mL (≈ 1.65 µM). Also, the MIC PM 6391 in [8] was ≤ 0.1 µg/mL. In assay [9], this molecule yielded an MIC PM 10775 of 0.4 µg/mL (≈ 0.825 µM). In addition, in [10], the MIC PM 12080 was determined as 0.4 µg/mL (≈ 0.825 µM).
Regarding `CON=C(C)[C@H](NC(=O)c1ccc(C#Cc2ccc(CNCc3ccc(OC)cc3)cc2)cc1)C(=O)NO` [Compound 383], in assay [1], the MIC MH 6357 turned out to be 0.8 µg/mL (≈ 1.55 µM). In [2], the MIC MH 6374 was determined as 1.6 µg/mL (≈ 3.11 µM). Also, the MIC MH 10720 in assay [3] was determined as 0.8 µg/mL (≈ 1.55 µM). The molecule also had an MIC MH 12587 in [4] of 0.4 µg/mL (≈ 0.777 µM). This molecule displayed an MIC MH 13065 in assay [5] of 1.6 µg/mL (≈ 3.11 µM). In addition, in [6], the MIC MH 13093 was found to be 1.6 µg/mL (≈ 3.11 µM). The molecule also showed an MIC PM 6267 in assay [7] of 6.3 µg/mL (≈ 12.2 µM). Further, in assay [8], the MIC PM 6391 is ≤ 0.1 µg/mL. In assay [9], this molecule had an MIC PM 10775 of 0.8 µg/mL (≈ 1.55 µM). Besides, in [10], the MIC PM 12080 came to 0.4 µg/mL (≈ 0.777 µM).
In assay [1], `CON=C(C)[C@H](NC(=O)c1ccc(C#Cc2ccc(CN3CCCC3)cc2)cc1)C(=O)NO` [Compound 384] returned an MIC MH 6357 of 6.3 µg/mL (≈ 14 µM). Besides, the MIC MH 6374 in assay [2] turned out to be 12.5 µg/mL (≈ 27.9 µM). The molecule also returned an MIC MH 10720 in [3] of 3.1 µg/mL (≈ 6.91 µM). This molecule also came in with an MIC MH 12587 in assay [4] of 1.6 µg/mL (≈ 3.57 µM). This molecule also came in with an MIC MH 13065 in assay [5] of 6.3 µg/mL (≈ 14 µM). This molecule also displayed an MIC MH 13093 in assay [6] of 6.3 µg/mL (≈ 14 µM). In addition, in [7], the MIC PM 6267 is 12.5 µg/mL (≈ 27.9 µM). The same molecule came in with an MIC PM 6391 in [8] of 0.4 µg/mL (≈ 0.892 µM). Further, in assay [9], the MIC PM 10775 turned out to be 3.1 µg/mL (≈ 6.91 µM). The MIC PM 12080 in [10] amounted to 1.6 µg/mL (≈ 3.57 µM).
Molecule `CON=C(C)[C@H](NC(=O)c1ccc(C#Cc2ccc(CNC3CCC3)cc2)cc1)C(=O)NO` [Compound 385] returned an MIC MH 6357 in assay [1] of 3.1 µg/mL (≈ 6.91 µM). The MIC MH 6374 in [2] came to 6.3 µg/mL (≈ 14 µM). The molecule further displayed an MIC MH 10720 in assay [3] of 1.6 µg/mL (≈ 3.57 µM). For the same molecule, the MIC MH 12587 in assay [4] is 1.6 µg/mL (≈ 3.57 µM). Moreover, the MIC MH 13065 in assay [5] came out at 3.1 µg/mL (≈ 6.91 µM). Moreover, in assay [6], the MIC MH 13093 came out at 6.3 µg/mL (≈ 14 µM). The molecule also showed an MIC PM 6267 in [7] of 25 µg/mL (≈ 55.7 µM). The MIC PM 6391 in assay [8] came to 0.2 µg/mL (≈ 0.446 µM). This molecule also had an MIC PM 10775 in [9] of 0.8 µg/mL (≈ 1.78 µM). In assay [10], this molecule had an MIC PM 12080 of 0.4 µg/mL (≈ 0.892 µM).
As for `CON=C(C)[C@H](NC(=O)c1ccc(C#Cc2ccc(CNC3CCCC3)cc2)cc1)C(=O)NO` [Compound 386], in [1], the MIC MH 6357 stood at 12.5 µg/mL (≈ 27 µM). Moreover, the MIC MH 6374 in assay [2] stood at 12.5 µg/mL (≈ 27 µM). The same molecule yielded an MIC MH 10720 in assay [3] of 1.6 µg/mL (≈ 3.46 µM). Further, in [4], the MIC MH 12587 was determined as 1.6 µg/mL (≈ 3.46 µM). For the same molecule, in assay [5], the MIC MH 13065 was 12.5 µg/mL (≈ 27 µM). The same molecule displayed an MIC MH 13093 in [6] of 12.5 µg/mL (≈ 27 µM). Also, the MIC PM 6267 in [7] is 50 µg/mL (≈ 108 µM). Besides, in assay [8], the MIC PM 6391 came to 0.4 µg/mL (≈ 0.865 µM). In assay [9], this molecule displayed an MIC PM 10775 of 1.6 µg/mL (≈ 3.46 µM). In assay [10], the MIC PM 12080 is 0.4 µg/mL (≈ 0.865 µM).

The values are drawn from patent US11034650B2, “Compounds useful for treating a Mannheimia haemolytica or Histophilus somni infection” (Intervet Inc., priority 2016, dated 2021).
